Results from patent US20250268840A1, “USE OF NANO-CARRIERS FOR DELIVERY OF ACTIVE AGENTS” (LANDA LABS (2012) LTD., priority 2022, published 2025).

Tests used:
[1] = Thermo-rheometer viscosity of WITC (PCL), unplasticized or blended with plasticizing agents / premixes; format: physicochemical
Method: Thermo-rheometer: Thermo Scientific (Germany) Haake Mars III, with a C20/1° spindle, a gap of 0.052 mm, and a shear rate of 10 sec^−1. […]
Samples corresponding to the above-described premixes were additionally tested for their viscosity at the end of the mixing step, when the WITCs were at least homogeneously blended with the polar-carrier-insoluble materials, and in most case plasticized by the non-volatile liquids if present. Viscosity was determined as previously described at a shear rate of 10 sec^−1 over a range of temperatures between 20° C. and 80° C., and for all samples so tested the viscosity as measured at 50° C. was typically found to be of less than 10^6 mPa·s, being generally between 10^3 mPa·s and 10^5 mPa·s, often not exceeding 5×10^4 mPa·s, and many samples even having a viscosity of less 10^4 mPa·s.
In a first series of experiments, the viscosity was measured on blends of materials forming a homogeneous mass adapted for nano-sizing by the present methods. PCL and a non-volatile liquid or a fatty amine serving as SFA at various weight per weight ratios were combined in a glass vial and the sealed vials were placed in an oven pre-heated to 80° C. The PCL: non-volatile liquid ratios tested were 1:1 and 1:2.33 and the PCL: fatty amine ratios tested were 1:0.1, 1:0.33, 1:0.5 and 1:1. Following 1 hour of incubation under heat, the contents of the vials were mixed by hand for about 30 seconds, until clear solutions were obtained. The samples were allowed to cool down overnight (i.e., at least 12 hours) at room temperature so as to solidify.
Solid samples were then transferred to a rheometer where their respective viscosity was measured as a function of temperature between room temperature and 70° C. at a ramping up temperature of 10° C./min. The viscosities (or 2nd viscosities) of the samples as measured at 50° C. and 70° C. are summarized in Table 2-II(A), including in the first row the first viscosities of a reference sample made of PCL alone, unplasticized, under same conditions.

[2] = Pharmacokinetic study of tadalafil in plasma after oral administration; format: in vivo, rats (Sprague Dawley); conditions: rats
Method: The following pharmacokinetic (PK) study was conducted to determine the efficacy of a composition according to the present teachings, following its oral administration to rats.
Nine young adult healthy rats (Sprague Dawley), having an initial mean body weight of about 243.1 +1.8 g, were used in this study. They were individually tail marked and housed within a limited access caged rodent facility. The rats were randomly divided into groups of 3, and were kept with their groups in cages, in a controlled environment at a temperature of 17-23° C., with a relative humidity (RH) of 30-70%, a 12:12 hour light:dark cycle and 15 air changes/h in the study room. […]
Nano-dispersion ND39, as listed in Table 5-II, was used as the tested composition. ND39 contains tadalafil as the polar-carrier insoluble active agent present in the core of the nano-elements, and its concentration in the rats' blood was monitored. […]
The plasma samples were combined with acetone, allowing the dissolution of the nano-elements and making the tadalafil available for measuring, followed by centrifugation whereby plasma proteins were precipitated. The obtained supernatant was removed and analyzed by LC-MS/MS vs. a tadalafil calibration curve prepared in advance, in the range of 1 ng/ml to 10 ug/ml. […]

[3] = PCL:plasticizing agent w/w ratio 1:1
[4] = PCL:plasticizing agent w/w ratio 1:2.33
[5] = PCL:plasticizing agent w/w ratio 1:0.33
[6] = PCL:plasticizing agent w/w ratio 1:0.5

CCCCOC(=O)CCCCC(=O)OCCCC [Cetiol ® B, Dibutyl adipate]
PCL 2nd viscosity at 50° C. [mPa · s] [1, 3]: 5.0 × 10^3 mPa · s
PCL 2nd viscosity at 70° C. [mPa · s] [1, 3]: 2.2 × 10^3 mPa · s
PCL 2nd viscosity at 50° C. [mPa · s] [1, 4]: 215 mPa · s
PCL 2nd viscosity at 70° C. [mPa · s] [1, 4]: 164 mPa · s

CCCCCCCC/C=C\CCCCCCCCN [Oleyl amine]
PCL 2nd viscosity at 50° C. [mPa · s] [1, 5]: 1.9 × 10^3 mPa · s
PCL 2nd viscosity at 70° C. [mPa · s] [1, 5]: 1.7 × 10^3 mPa · s
PCL 2nd viscosity at 50° C. [mPa · s] [1, 6]: 6.7 × 10^3 mPa · s
PCL 2nd viscosity at 70° C. [mPa · s] [1, 6]: 4.4 × 10^3 mPa · s

CN1CC(=O)N2[C@H](c3ccc4c(c3)OCO4)c3[nH]c4ccccc4c3C[C@@H]2C1=O [Ref. T, Tadalafil]
% CV of plasma tadalafil concentration, average for all time points ([2]; 3 animals per time point): 31.1%
AUC0-∞/D (area under curve zero to infinity normalized to dose of tadalafil) ([2]; ND39 about 16 mg/kg, Ref. C about 18.7 mg/kg, Ref. T about 18.1 mg/kg): about 1,249 h.mg/ml

CCCCCCCCN(CCCCCCCC)CCCCCCCC [Trioctyl amine]
PCL 2nd viscosity at 50° C. [mPa · s] [1, 3]: 544 mPa · s
PCL 2nd viscosity at 70° C. [mPa · s] [1, 3]: 279 mPa · s
